# Laboratory results published in US11986452B2, “Methods of reducing the risk of heart failure” (Amarin Pharmaceuticals Ireland Limited, priority 2021, dated 2024).
# Key:
# [1] = test system: statin-treated patients in the icosapent ethyl group; test: Example 5: new heart failure by on-treatment EPA tertile (post hoc); assay type: in vivo, human; conditions: for New heart failure requiring hospitalization: HR vs lowest on treatment EPA tertile / New heart failure: HR vs lowest on treatment EPA tertile: post hoc, icosapent ethyl group only
# Text: The mechanical or surgical intervention including mechanical circulatory support (e.g., intra-aortic balloon pump, ventricular assist device) and/or mechanical fluid removal (e.g., ultrafiltration, hemofiltration, dialysis).
# New Heart Failure/Heart Failure Not Requiring Hospitalization: is defined as an event that meets all of the following: the patient has an urgent, unscheduled office/practice or emergency department visit for a primary diagnosis of HF, but not meeting the criteria for a HF hospitalization; all signs and symptoms for HF hospitalization must be met as defined in A Heart Failure Hospitalization above; and the patient receives initiation or intensification of treatment specifically for HF, as detailed in the above section with the exception of oral diuretic therapy, which was not sufficient.
# The study design was the same as that described above in Example 1 related to the REDUCE-IT clinical trial.
# Prespecified tertiary endpoints of NHF (HR=0.95; 95% CI, 0.77-1.17; p=0.63) and NHF requiring hospitalization (HR=0.97; 0.77-1.22; p=0.78) from the REDUCE-IT clinical trial were not significant.
# [2] = test system: statin-treated patients with elevated triglycerides; test: Example 3: total (first and subsequent) ischemic events analysis (negative binomial, modified Wei-Lin-Weissfeld, Andersen-Gill, joint frailty); assay type: in vivo, human; conditions: for Adjusted HR, total events / Unadjusted HR, total events / Adjusted HR, first event / Adjusted HR, second event / Adjusted HR, third event / Unadjusted HR, first event / Unadjusted HR, second event / Unadjusted HR, third event / Adjusted RR, total events / Unadjusted RR, total events / HR, Cardiovascular Death / HR, Non-fatal Cardiovascular Event: vs placebo; for Adjusted HR, first event / Adjusted HR, second event / Adjusted HR, third event / Unadjusted HR, first event / Unadjusted HR, second event / Unadjusted HR, third event: modified WLW; for HR, Cardiovascular Death / HR, Non-fatal Cardiovascular Event: joint frailty model; for Fatal events, %: after reduction
# Text: The following study was a multi-center, placebo-controlled clinical trial the details of which are described above in Example 1, the REDUCE-IT design. […] The main outcomes were total primary composite endpoint events defined as cardiovascular death, nonfatal myocardial infarction, nonfatal stroke, coronary revascularization, or hospitalization for unstable angina and total key secondary composite endpoint events defined as cardiovascular death, nonfatal myocardial infarction, or nonfatal stroke. In the context of this study, total events refer to any first event as well as any subsequent event. Differences in total events were determined using other statistical models, including Andersen-Gill, Wei-Lin-Weissfeld (Li and Lagakos), both pre-specified, and a post hoc and joint-frailty analysis.
# For the present prespecified analysis, the primary outcome was the total of first plus subsequent ischemic events consisting of the composite of cardiovascular death, nonfatal myocardial infarction, nonfatal stroke, coronary revascularization, or hospitalization for unstable angina. […] Exploratory analyses of the total of first and subsequent events were also performed for the key secondary composite endpoint.
# Baseline characteristics were compared between treatment groups using the chi-squared test for categorical variables and the Wilcoxon rank sum test for continuous variables. There are several methods for analyzing first and subsequent (recurrent) event data. As a pre-specified statistical method, a negative binomial regression was used to calculate rates and rate ratios for total cardiovascular events, which accounts for the variability in each patient's risk of events. As pre-specified supportive analyses, the modified Wei-Lin-Weissfeld method (Li and Lagakos modification) was used to calculate hazard ratios (HRs) for the time to the first event, second event, or third event. An additional pre-specified analysis, the Andersen-Gill model using a Cox proportional-hazard with the counting-process formulation was performed to model the total events. In addition, in order to account for informative censoring due to cardiovascular death, the HR for total non-fatal events was calculated using a joint frailty model (See Rondeau V. Joint frailty models for recurring events and death using maximum penalized likelihood estimation: application on cancer events. Biostatistics. 2007; 8:708-21). The joint frailty model simultaneously estimates hazard functions for non-fatal and fatal CV events and takes into account the fact that patients who are prone to have nonfatal events have an elevated risk of a cardiovascular death. The application of the joint frailty model used a gamma distribution for the frailty term.
# Statistical analyses using the full adjudicated endpoint events dataset without exclusions using this bundling approach were also determined.
# [3] = key secondary composite endpoint, Andersen-Gill (I), full dataset
# [4] = key secondary composite endpoint, Andersen-Gill (I), reduced dataset
# [5] = key secondary composite endpoint, Andersen-Gill (II), full dataset
# [6] = key secondary composite endpoint, Andersen-Gill (II), reduced dataset
# [7] = key secondary composite endpoint, full dataset
# [8] = key secondary composite endpoint, reduced dataset
# [9] = key secondary composite endpoint, negative binomial, full dataset
# [10] = key secondary composite endpoint, negative binomial, reduced dataset
# [11] = key secondary endpoint, adjusted, reduced dataset
# [12] = key secondary endpoint, unadjusted, reduced dataset
# [13] = primary composite endpoint, Andersen-Gill (I), full dataset
# [14] = primary composite endpoint, Andersen-Gill (I), reduced dataset
# [15] = primary composite endpoint, Andersen-Gill (II), full dataset
# [16] = primary composite endpoint, Andersen-Gill (II), reduced dataset
# [17] = primary composite endpoint, full dataset
# [18] = primary composite endpoint, reduced dataset
# [19] = primary composite endpoint, negative binomial, full dataset
# [20] = primary composite endpoint, negative binomial, reduced dataset
# [21] = primary endpoint, adjusted, reduced dataset
# [22] = primary endpoint, unadjusted, reduced dataset
structure (smiles),measurement,setting,value
"CC/C=C\C/C=C\C/C=C\C/C=C\C/C=C\CCCC(=O)OCC [icosapent ethyl, eicosapentaenoic acid ethyl ester]",Achieved EPA level with statistically and clinically meaningful risk reductions in NHF,[1]; EPA tertile analyses within icosapent ethyl group,above 104 μg/mL
same,New heart failure requiring hospitalization: HR vs lowest on treatment EPA tertile,[1]; middle EPA tertile,0.47
same,New heart failure: HR vs lowest on treatment EPA tertile,[1]; middle EPA tertile,0.55
same,New heart failure requiring hospitalization: HR vs lowest on treatment EPA tertile,[1]; upper EPA tertile,0.45
same,New heart failure: HR vs lowest on treatment EPA tertile,[1]; upper EPA tertile,0.41
same,Total (first and subsequent) ischemic events for the primary composite endpoint: relative risk reduction,[2]; in vivo,30%
same,"Adjusted HR, total events",[2]; [3],0.71
same,"Unadjusted HR, total events",[2]; [3],0.71
same,"Adjusted HR, total events",[2]; [4],0.72
same,"Unadjusted HR, total events",[2]; [4],0.72
same,"Adjusted HR, total events",[2]; [5],0.71
same,"Unadjusted HR, total events",[2]; [5],0.71
same,"Adjusted HR, total events",[2]; [6],0.72
same,"Unadjusted HR, total events",[2]; [6],0.72
same,"Adjusted HR, first event",[2]; [7],0.74
same,"Adjusted HR, second event",[2]; [7],0.75
same,"Adjusted HR, third event",[2]; [7],0.79
same,"Unadjusted HR, first event",[2]; [7],0.74
same,"Unadjusted HR, second event",[2]; [7],0.75
same,"Unadjusted HR, third event",[2]; [7],0.79
same,"Adjusted HR, first event",[2]; [8],0.74
same,"Adjusted HR, second event",[2]; [8],0.75
same,"Adjusted HR, third event",[2]; [8],0.79
same,"Unadjusted HR, first event",[2]; [8],0.74
same,"Unadjusted HR, second event",[2]; [8],0.75
same,"Unadjusted HR, third event",[2]; [8],0.79
same,"Adjusted RR, total events",[2]; [9],0.71
same,"Unadjusted RR, total events",[2]; [9],0.71
same,"Adjusted RR, total events",[2]; [10],0.72
same,"Unadjusted RR, total events",[2]; [10],0.71
same,"HR, Cardiovascular Death",[2]; [11],0.79
same,"HR, Non-fatal Cardiovascular Event",[2]; [11],0.68
same,"Fatal events, %",[2]; key secondary endpoint,45.0%
same,"Total events before reduction, %","[2]; key secondary endpoint, share of overall events",42.0%
same,"HR, Cardiovascular Death",[2]; [12],0.79
same,"HR, Non-fatal Cardiovascular Event",[2]; [12],0.68
same,Total key secondary endpoint events: RR vs placebo,[2]; negative binomial,0.72
same,"Adjusted HR, total events",[2]; [13],0.68
same,"Unadjusted HR, total events",[2]; [13],0.68
same,"Adjusted HR, total events",[2]; [14],0.69
same,"Unadjusted HR, total events",[2]; [14],0.69
same,"Adjusted HR, total events",[2]; [15],0.68
same,"Unadjusted HR, total events",[2]; [15],0.68
same,"Adjusted HR, total events",[2]; [16],0.69
same,"Unadjusted HR, total events",[2]; [16],0.69
same,"Adjusted HR, first event",[2]; [17],0.75
same,"Adjusted HR, second event",[2]; [17],0.68
same,"Adjusted HR, third event",[2]; [17],0.70
same,"Unadjusted HR, first event",[2]; [17],0.76
same,"Unadjusted HR, second event",[2]; [17],0.69
same,"Unadjusted HR, third event",[2]; [17],0.70
same,"Adjusted HR, first event",[2]; [18],0.75
same,"Adjusted HR, second event",[2]; [18],0.68
same,"Adjusted HR, third event",[2]; [18],0.69
same,"Unadjusted HR, first event",[2]; [18],0.76
same,"Unadjusted HR, second event",[2]; [18],0.69
same,"Unadjusted HR, third event",[2]; [18],0.69
same,"Adjusted RR, total events",[2]; [19],0.69
same,"Unadjusted RR, total events",[2]; [19],0.67
same,"Adjusted RR, total events",[2]; [20],0.70
same,"Unadjusted RR, total events",[2]; [20],0.68
same,"HR, Cardiovascular Death",[2]; [21],0.80
same,"HR, Non-fatal Cardiovascular Event",[2]; [21],0.67
same,"Fatal events, %",[2]; primary endpoint,45.0%
same,"Total events after reduction, %","[2]; primary endpoint, multiple endpoints in a single calendar day handled as a single event",41.0%
same,"HR, Cardiovascular Death",[2]; [22],0.80
same,"HR, Non-fatal Cardiovascular Event",[2]; [22],0.66
